Assay results taken from BigSolDB 2.1.

CCn1c2ccccc2c2cc(-n3nncc3-c3ccccc3)ccc21
Conditions	solubility (mole fraction)
in acetonitrile, 281.7 K	0.00188
in acetonitrile, 287.8 K	0.00249
in acetonitrile, 295.4 K	0.00335
in acetonitrile, 304.8 K	0.00485
in acetonitrile, 312.3 K	0.0066
in acetonitrile, 319.4 K	0.00933
in acetonitrile, 325 K	0.0125
in ethanol, 279.2 K	0.000406
in ethanol, 281.5 K	0.000428
in ethanol, 285.8 K	0.000529
in ethanol, 288.8 K	0.000598
in ethanol, 291.9 K	0.000685
in ethanol, 297.2 K	0.000847
in ethanol, 307.8 K	0.00136
in ethanol, 313 K	0.0017
in ethanol, 318.9 K	0.00222
in ethanol, 323.2 K	0.00274
in ethanol, 329 K	0.00376
in ethyl acetate, 278.9 K	0.00403
in ethyl acetate, 282.5 K	0.00438
in ethyl acetate, 288.6 K	0.00531
in ethyl acetate, 293.8 K	0.0062
in ethyl acetate, 296.6 K	0.00681
in ethyl acetate, 301.9 K	0.00793
in ethyl acetate, 306.3 K	0.00903
in ethyl acetate, 310.5 K	0.0103
in ethyl acetate, 318 K	0.0129
in ethyl acetate, 322.8 K	0.0154
in ethyl acetate, 326.9 K	0.0182
in isopropanol, 279.4 K	0.000218
in isopropanol, 290.4 K	0.000352
in isopropanol, 294.2 K	0.000467
in isopropanol, 298.4 K	0.000571
in isopropanol, 300.9 K	0.000684
in isopropanol, 304.6 K	0.000794
in isopropanol, 307.7 K	0.000913
in isopropanol, 311 K	0.00113
in isopropanol, 319.5 K	0.00181
in isopropanol, 324.1 K	0.00226
in isopropanol, 330.2 K	0.00329
in methanol, 279.3 K	0.000409
in methanol, 281.9 K	0.000468
in methanol, 288.2 K	0.000591
in methanol, 300.7 K	0.000949
in methanol, 306.1 K	0.00116
in methanol, 314.8 K	0.00165
in methanol, 320.7 K	0.00222
in methanol, 325 K	0.00279
in n-butanol, 280.1 K	0.000585
in n-butanol, 283.7 K	0.000684
in n-butanol, 288.6 K	0.000848
in n-butanol, 292.7 K	0.00111
in n-butanol, 298.2 K	0.00138
in n-butanol, 307.4 K	0.00221
in n-butanol, 312.6 K	0.00276
in n-butanol, 320.4 K	0.00401
in n-butanol, 331.5 K	0.00688
in n-propanol, 283 K	0.000556
in n-propanol, 285.1 K	0.00067
in n-propanol, 288.8 K	0.000774
in n-propanol, 297.1 K	0.00111
in n-propanol, 307 K	0.00177
in n-propanol, 312.2 K	0.00223
in n-propanol, 319.4 K	0.00314
in n-propanol, 325.2 K	0.00418
in n-propanol, 330.2 K	0.00554
in sec-butanol, 279.9 K	0.000287
in sec-butanol, 283.2 K	0.000366
in sec-butanol, 291.7 K	0.000592
in sec-butanol, 294.6 K	0.00073
in sec-butanol, 298.4 K	0.000892
in sec-butanol, 306.7 K	0.00149
in sec-butanol, 315.7 K	0.0024
in sec-butanol, 319.1 K	0.00295
in sec-butanol, 321.3 K	0.0034
in sec-butanol, 329.5 K	0.0053
